Results: ChEMBL document CHEMBL1155873, “Sesquiterpenes from the Hainan Sponge Dysidea septosa” (J Nat Prod, 2008)

These compounds were tested against T1, Tyrosine-protein phosphatase non-receptor type 1 (Homo sapiens, UniProt P18031) (assay: Inhibition of human recombinant PTP1B catalytic domain).
T1 sequence (P18031 whole entry): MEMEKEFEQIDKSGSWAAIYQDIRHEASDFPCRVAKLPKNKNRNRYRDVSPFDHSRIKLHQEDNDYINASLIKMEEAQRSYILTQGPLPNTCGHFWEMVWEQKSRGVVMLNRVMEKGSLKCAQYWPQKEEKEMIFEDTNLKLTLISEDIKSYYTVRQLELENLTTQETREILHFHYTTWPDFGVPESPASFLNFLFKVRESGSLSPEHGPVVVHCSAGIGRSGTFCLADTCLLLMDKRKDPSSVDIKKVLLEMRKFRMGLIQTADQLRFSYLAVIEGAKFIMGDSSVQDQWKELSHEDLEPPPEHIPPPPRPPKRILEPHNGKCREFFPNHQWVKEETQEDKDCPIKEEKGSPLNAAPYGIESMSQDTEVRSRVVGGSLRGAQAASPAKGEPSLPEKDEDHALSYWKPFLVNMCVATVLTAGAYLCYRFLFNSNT

IC50 | SMILES
46.7 µM | C=C1C=CC[C@@H](C)[C@@]1(C)CCC1=CC(O)OC1=O (some centres undefined) [HYDROXYBUTENOLIDE]
8.78 µM | CC1=C[C@@H]2C[C@H](C)[C@]1(C)CCc1ccoc12
31.1 µM | C=C1CCC[C@@H](C)[C@@]1(C)CCc1ccoc1

SMILES | IC50
C[C@@H]1[C@@H]2C=C[C@@](C)(OO2)[C@@]1(C)CCC1=CC(O)OC1=O (some centres undefined) [LINGSHUIPEROXIDE] | 31.4 µM
